The subject of one data set is young human fibroblasts. Description: Cell death by CCK-8 in young fibroblasts. Conditions: concentration of 50 ppm or higher, 72 hours. Type of data set: cell-based. How it is done: Human fibroblasts were cultured in a 6-well plate culture medium. Senescent cells were prepared by inducing senescence by culturing the fibroblasts in DMEM (containing 10% FBS) medium containing doxorubicin (100 ng/ml) and insulin-like growth factor 1 (IGF-1) (100 ng/ml) for 4 days. Then, the same medium was treated with a positive control material (ABT737, 1-10 uM) and the tea tree root extract (50-150 ppm) and cultured for 72 hours. The ABT737 is a Bcl-2 inhibitor and a representative senolytic. Young cells were treated with experimental materials in DMEM medium without inducing senescence and cultured for 72 hours.
In order to confirm the senolytic efficacy of the treatment with the tea tree root extract, the medium was replaced with a medium diluted 1/100 with Cell counting kit-8 (CCK-8, dojindo), cultured for 1 hour, and then the absorbance was measured at 540 nm.
Human fibroblasts were cultured in a 6-well plate culture medium. […]
In order to confirm the senolytic efficacy of the material treated with the tea tree root extract, the medium was replaced with a medium diluted 1/100 with Cell counting kit-8 (CCK-8, dojindo), cultured for 1 hour, and then the absorbance was measured at 540 nm.

Data set [1] deals with senescent human fibroblasts. Description: Cell death by CCK-8 in senescence-induced fibroblasts. Conditions: 72 hours. Type of data set: cell-based. How it is done:
Human fibroblasts were cultured in a 6-well plate culture medium. Senescent cells were prepared by inducing senescence by culturing the fibroblasts in DMEM (containing 10% FBS) medium containing doxorubicin (100 ng/ml) and insulin-like growth factor 1 (IGF-1) (100 ng/ml) for 4 days. Then, the same medium was treated with a positive control material (ABT737, 1-10 uM) and the tea tree root extract (50-150 ppm) and cultured for 72 hours. The ABT737 is a Bcl-2 inhibitor and a representative senolytic. Young cells were treated with experimental materials in DMEM medium without inducing senescence and cultured for 72 hours. In order to confirm the senolytic efficacy of the treatment with the tea tree root extract, the medium was replaced with a medium diluted 1/100 with Cell counting kit-8 (CCK-8, dojindo), cultured for 1 hour, and then the absorbance was measured at 540 nm. Human fibroblasts were cultured in a 6-well plate culture medium. […] In order to confirm the senolytic efficacy of the material treated with the tea tree root extract, the medium was replaced with a medium diluted 1/100 with Cell counting kit-8 (CCK-8, dojindo), cultured for 1 hour, and then the absorbance was measured at 540 nm.

Data on one compound can be found in patent publication US20250000786A1, “SENOTHERAPY COMPOSITION CONTAINING CAMELLIA SINENSIS EXTRACT” (AMOREPACIFIC CORPORATION, priority 2023, published 2025).

For the compound `O=C(O[C@@H]1Cc2c(O)cc(O)cc2O[C@@H]1c1cc(O)c(O)c(O)c1)c1cc(O)c(O)c(O)c1` [EGCG, epigallocatechin gallate], the “cytotoxicity on young cells” value in the data set with young human fibroblasts is “showed cytotoxicity”. Further, in data set [1], the “killing senescent cells in fibroblasts” value is “no effect”.
